Reference: ChEMBL document CHEMBL1125236 (J Med Chem, 1991)
“And” between values parts separate entries of the source, which are not always exact repeats. Equal values may be shown once.

Key:
[1] = test system: L1210; test: Antitumor activity (T/C) evaluated against L1210 leukemia from the median survival time of treated mice (T) over that of control mice (C) at a dose of 8 mg/kg; format: functional, Mus musculus
[2] = test system: L1210; test: Antitumor activity (T/C) evaluated against L1210 leukemia from the median survival time of treated mice (T) over that of control mice (C) at a dose of 32 mg/kg; format: functional, Mus musculus
[3] = test system: L1210; test: In vivo activity against L1210 leukemia cells in mice at a dose of 32 mg/kg and expressed as Survival median in days; format: functional, Mus musculus
[4] = molecular target: T1, Dihydrofolate reductase (Homo sapiens, UniProt P00374)
T1 sequence (P00374 whole entry): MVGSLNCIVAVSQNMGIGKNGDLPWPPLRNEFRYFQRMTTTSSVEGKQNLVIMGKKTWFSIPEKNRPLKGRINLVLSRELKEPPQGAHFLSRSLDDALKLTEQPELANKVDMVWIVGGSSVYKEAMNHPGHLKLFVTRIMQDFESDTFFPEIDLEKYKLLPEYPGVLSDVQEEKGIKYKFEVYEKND
Description: Inhibition of dihydrofolate reductase (DHFR) from human cells (WI-L2/M4).

[5] = test system: L1210; test: In vivo activity against L1210 leukemia cells in mice at a dose of 16 mg/kg and expressed as percent weight change after 7 days; format: functional, Mus musculus
[6] = test system: L1210; test: In vivo activity against L1210 leukemia cells in mice at a dose of 8 mg/kg and expressed as percent weight change after 7 days; format: functional, Mus musculus
[7] = test system: L1210; test: In vivo activity against L1210 leukemia cells in mice at a dose of 32 mg/kg and expressed as percent weight change after 7 days; format: functional, Mus musculus
[8] = test system: L1210; test: Antitumor activity (T/C) evaluated against L1210 leukemia from the median survival time of treated mice (T) over that of control mice (C) at a dose of 16 mg/kg; format: functional, Mus musculus
[9] = test system: L1210; test: Compound was evaluated for the growth inhibition of L1210 cells.; format: functional, cell-based; conditions: Mus musculus
[10] = test system: L1210; test: In vivo activity against L1210 leukemia cells in mice at a dose of 8 mg/kg and expressed as Survival range in days; format: functional, Mus musculus
[11] = test system: L1210; test: In vivo activity against L1210 leukemia cells in mice at a dose of 8 mg/kg and expressed as Survival median in days; format: functional, Mus musculus
[12] = test system: L1210; test: In vivo activity against L1210 leukemia cells in mice at a dose of 32 mg/kg and expressed as Survival range in days; format: functional, Mus musculus
[13] = test system: L1210; test: In vivo activity against L1210 leukemia cells in mice at a dose of 16 mg/kg and expressed as Survival range in days; format: functional, Mus musculus
[14] = test system: L1210; test: In vivo activity against L1210 leukemia cells in mice at a dose of 16 mg/kg and expressed as Survival median in days; format: functional, Mus musculus
[15] = test system: L1210; test: Antitumor activity (T/C) evaluated against L1210 leukemia from the median survival time of treated mice (T) over that of control mice (C) at a dose of 1 mg/kg; format: functional, Mus musculus
[16] = test system: L1210; test: Antitumor activity (T/C) evaluated against L1210 leukemia from the median survival time of treated mice (T) over that of control mice (C) at a dose of 0.75 mg/kg as experiment 3
[17] = test system: L1210; test: Antitumor activity (T/C) evaluated against L1210 leukemia from the median survival time of treated mice (T) over that of control mice (C) at a dose of […] as experiment 1; format: functional, Mus musculus
[18] = test system: L1210; test: Antitumor activity (T/C) evaluated against L1210 leukemia from the median survival time of treated mice (T) over that of control mice (C) at a dose of 4 mg/kg; format: functional, Mus musculus
[19] = test system: L1210; test: In vivo activity against L1210 leukemia cells in mice at a dose of 8 mg/kg and expressed as percent weight change after 7 days as experiment 3; format: functional, Mus musculus
[20] = test system: L1210; test: In vivo activity against L1210 leukemia cells in mice at a dose of 16 mg/kg and expressed as percent weight change after 7 days as experiment 1.; format: functional, Mus musculus
[21] = test system: L1210; test: Antitumor activity (T/C) evaluated against L1210 leukemia from the median survival time of treated mice (T) over that of control mice (C) at a dose of 32 mg/kg as experiment 1; format: functional, Mus musculus
[22] = test system: L1210; test: Antitumor activity (T/C) evaluated against L1210 leukemia from the median survival time of treated mice (T) over that of control mice (C) at a dose of 8 mg/kg as experiment 3; format: functional, Mus musculus
[23] = test system: L1210; test: In vivo activity against L1210 leukemia cells in mice at a dose of 12 mg/kg and expressed as percent weight change after 7 days as experiment 3; format: functional, Mus musculus
[24] = test system: L1210; test: Antitumor activity (T/C) evaluated against L1210 leukemia from the median survival time of treated mice (T) over that of control mice (C) at a dose of 16 mg/kg as experiment 2; format: functional, Mus musculus
[25] = test system: L1210; test: In vivo activity against L1210 leukemia cells in mice at a dose of 8 mg/kg and expressed as Survival median in days as experiment 3; format: functional, Mus musculus
[26] = test system: L1210; test: Antitumor activity (T/C) evaluated against L1210 leukemia from the median survival time of treated mice (T) over that of control mice (C) at a dose of 16 mg/kg as experiment 3; format: functional, Mus musculus
[27] = test system: L1210; test: In vivo activity against L1210 leukemia cells in mice at a dose of 4 mg/kg and expressed as percent weight change after 7 days as experiment 1.; format: functional, Mus musculus
[28] = test system: L1210; test: In vivo activity against L1210 leukemia cells in mice at a dose of 16 mg/kg and expressed as percent weight change after 7 days as experiment 2; format: functional, Mus musculus
[29] = test system: L1210; test: In vivo activity against L1210 leukemia cells in mice at a dose of 16 mg/kg and expressed as Survival median in days as experiment 2; format: functional, Mus musculus
[30] = test system: L1210; test: In vivo activity against L1210 leukemia cells in mice at a dose of 4 mg/kg and expressed as Survival median in days as experiment 1.; format: functional, Mus musculus
[31] = test system: L1210; test: Antitumor activity (T/C) evaluated against L1210 leukemia from the median survival time of treated mice (T) over that of control mice (C) at a dose of 12 mg/kg as experiment 3; format: functional, Mus musculus
[32] = test system: L1210; test: In vivo activity against L1210 leukemia cells in mice at a dose of 16 mg/kg and expressed as Survival median in days as experiment 3; format: functional, Mus musculus
[33] = test system: L1210; test: In vivo activity against L1210 leukemia cells in mice at a dose of 8 mg/kg and expressed as percent weight change after 7 days as experiment 1.; format: functional, Mus musculus
[34] = test system: L1210; test: In vivo activity against L1210 leukemia cells in mice at a dose of 16 mg/kg and expressed as percent weight change after 7 days as experiment 3; format: functional, Mus musculus
[35] = test system: L1210; test: Antitumor activity (T/C) evaluated against L1210 leukemia from the median survival time of treated mice (T) over that of control mice (C) at a dose of 4 mg/kg as experiment 3; format: functional, Mus musculus
[36] = test system: L1210; test: Antitumor activity (T/C) evaluated against L1210 leukemia from the median survival time of treated mice (T) over that of control mice (C) at a dose of 24 mg/kg as experiment 2; format: functional, Mus musculus
[37] = test system: L1210; test: In vivo activity against L1210 leukemia cells in mice at a dose of 20 mg/kg and expressed as Survival median in days as experiment 2; format: functional, Mus musculus
[38] = test system: L1210; test: In vivo activity against L1210 leukemia cells in mice at a dose of 4 mg/kg and expressed as percent weight change after 7 days as experiment 3; format: functional, Mus musculus
[39] = test system: L1210; test: In vivo activity against L1210 leukemia cells in mice at a dose of 12 mg/kg and expressed as Survival median in days as experiment 3; format: functional, Mus musculus
[40] = test system: L1210; test: In vivo activity against L1210 leukemia cells in mice at a dose of 24 mg/kg and expressed as percent weight change after 7 days as experiment 2; format: functional, Mus musculus
[41] = test system: L1210; test: In vivo activity against L1210 leukemia cells in mice at a dose of 2 mg/kg and expressed as Survival median in days as experiment 1.; format: functional, Mus musculus
[42] = test system: L1210; test: Antitumor activity (T/C) evaluated against L1210 leukemia from the median survival time of treated mice (T) over that of control mice (C) at a dose of 16 mg/kg as experiment 1; format: functional, Mus musculus
[43] = test system: L1210; test: In vivo activity against L1210 leukemia cells in mice at a dose of 32 mg/kg and expressed as percent weight change after 7 days as experiment 1.; format: functional, Mus musculus
[44] = test system: L1210; test: In vivo activity against L1210 leukemia cells in mice at a dose of 4 mg/kg and expressed as Survival range in days as experiment 1.; format: functional, Mus musculus
[45] = test system: L1210; test: In vivo activity against L1210 leukemia cells in mice at a dose of 2 mg/kg and expressed as percent weight change after 7 days as experiment 1.; format: functional, Mus musculus
[46] = test system: L1210; test: Antitumor activity (T/C) evaluated against L1210 leukemia from the median survival time of treated mice (T) over that of control mice (C) at a dose of 4 mg/kg as experiment 1; format: functional, Mus musculus
[47] = test system: L1210; test: In vivo activity against L1210 leukemia cells in mice at a dose of 4 mg/kg and expressed as Survival median in days as experiment 3; format: functional, Mus musculus
[48] = test system: L1210; test: In vivo activity against L1210 leukemia cells in mice at a dose of 8 mg/kg and expressed as Survival median in days as experiment 1.; format: functional, Mus musculus
[49] = test system: L1210; test: Antitumor activity (T/C) evaluated against L1210 leukemia from the median survival time of treated mice (T) over that of control mice (C) at a dose of 2 mg/kg as experiment 1; format: functional, Mus musculus
[50] = test system: L1210; test: In vivo activity against L1210 leukemia cells in mice at a dose of 12 mg/kg and expressed as Survival median in days as experiment 2; format: functional, Mus musculus
[51] = test system: L1210; test: In vivo activity against L1210 leukemia cells in mice at a dose of 16 mg/kg and expressed as Survival median in days as experiment 1.; format: functional, Mus musculus
[52] = test system: L1210; test: Antitumor activity (T/C) evaluated against L1210 leukemia from the median survival time of treated mice (T) over that of control mice (C) at a dose of 20 mg/kg as experiment 2; format: functional, Mus musculus
[53] = Compound was evaluated for growth inhibition of WI-L2 cells.; format: functional, cell-based; conditions: Homo sapiens, WIL2
[54] = test system: L1210; test: In vivo activity against L1210 leukemia cells in mice at a dose of 12 mg/kg and expressed as percent weight change after 7 days as experiment 2; format: functional, Mus musculus
[55] = test system: L1210; test: In vivo activity against L1210 leukemia cells in mice at a dose of 20 mg/kg and expressed as percent weight change after 7 days as experiment 2; format: functional, Mus musculus
[56] = test system: L1210; test: Antitumor activity (T/C) evaluated against L1210 leukemia from the median survival time of treated mice (T) over that of control mice (C) at a dose of 12 mg/kg as experiment 2; format: functional, Mus musculus
[57] = test system: L1210; test: In vivo activity against L1210 leukemia cells in mice at a dose of 32 mg/kg and expressed as Survival median in days as experiment 1.; format: functional, Mus musculus

## CN(Cc1cnc2nc(N)nc(N)c2n1)c1ccc(C(=O)NC(CCC(=O)Nc2cccc(B(O)O)c2)C(=O)O)cc1 (configuration not stated)
[1]
  T/C: 138%
[2]
  T/C: 175%
[3]
  Survival median: 14 days
[4]
  IC50: 30 nM
[5]
  weight change %: 4%
[6]
  weight change %: 8%
[7]
  weight change %: 5%
[8]
  T/C: 150%
[9]
  IC50: 0.7 nM
[10]
  Survival range: 9 days
[11]
  Survival median: 11 days
[12]
  Survival range: 12 days
[13]
  Survival range: 11 days
[14]
  Survival median: 12 days

## CN(Cc1cnc2nc(N)nc(N)c2n1)c1ccc(C(=O)N[C@@H](CCC(=O)O)C(=O)O)cc1 [METHOTREXATE]
[15]
  T/C: 188%
[16]
  T/C: 175%
[17]
  T/C: 213%
[18]
  T/C: 175% and 188% and 200%

## Nc1nc(N)c2nc(CNc3ccc(C(=O)NC(CCCNC(=O)c4ccccc4C(=O)O)C(=O)O)cc3)cnc2n1 (configuration not stated)
[19]
  weight change %: 4%
[20]
  weight change %: -5%
[21]
  T/C: 138%
[22]
  T/C: 250%
[23]
  weight change %: 2%
[24]
  T/C: 225%
[25]
  Survival median: 20 days
[26]
  T/C: 300%
[27]
  weight change %: -3%
[28]
  weight change %: 1%
[29]
  Survival median: 18 days
[30]
  Survival median: 14 days
[31]
  T/C: 275%
[32]
  Survival median: 24 days
[33]
  weight change %: 4%
[34]
  body weight change %: -3%
[35]
  T/C: 213%
[36]
  T/C: 250%
[37]
  Survival median: >21 days
[38]
  weight change %: 8%
[39]
  Survival median: 22 days
[40]
  weight change %: -3%
[41]
  Survival median: 13 days
[42]
  T/C: 188% and 225%
[43]
  weight change %: -11%
[44]
  Survival range: 13 days
[45]
  weight change %: -4%
[46]
  T/C: 175%
[47]
  Survival median: 17 days
[48]
  Survival median: 15 days
[49]
  T/C: 163%
[50]
  Survival median: 15 days
[51]
  Survival median: 18 days
[52]
  T/C: >263%
[53]
  IC50: 48 nM
[54]
  weight change %: 1%
[55]
  weight change %: -2%
[56]
  T/C: 188%
[57]
  Survival median: 11 days
